From ChEMBL document CHEMBL3046832, “Synthesis of some sulfonamides, disubstituted sulfonylureas or thioureas and some structurally related variants. A class of promising antitumor agents” (2007)

How the values were obtained:
Format in all cases: functional
SF-268 [1] = assay: Cytotoxicity against Homo sapiens (human) SF268 cells assessed as cellular growth after 48 hr by Alamar blue assay; set-up: concentration or dose not given beside the values
[2] = Cytotoxicity against Homo sapiens (human) ovarian cancer cells after 48 hr by SRB assay; conditions: Cancer cell lines
M14 = assay: Cytotoxicity against Homo sapiens (human) M14 cells after 48 hr by SRB assay; conditions: M14, 48 h
[3] = Cytotoxicity against Homo sapiens (human) colon cancer cells after 48 hr by SRB assay; conditions: Cancer cell lines
EKVX = assay: Cytotoxicity against Homo sapiens (human) EKVX cells after 48 hr by SRB assay
KM12 = assay: Cytotoxicity against Homo sapiens (human) KM12 cells after 48 hr by SRB assay; conditions: KM12, 48 h
OVCAR-3 = assay: Cytotoxicity against Homo sapiens (human) OVCAR3 cells after 48 hr by SRB assay; conditions: OVCAR-3, 48 h
[4] = Cytotoxicity against Homo sapiens (human) non-small cell lung cancer cells after 48 hr by SRB assay; conditions: Cancer cell lines
RXF 393 = assay: Cytotoxicity against Homo sapiens (human) RXF393 cells after 48 hr by SRB assay; conditions: RXF 393, 48 h
NCI-H522 = assay: Cytotoxicity against Homo sapiens (human) NCI-H522 cells after 48 hr by SRB assay; conditions: NCI-H522, 48 h
CCRF-CEM = assay: Cytotoxicity against Homo sapiens (human) CCRF-CEM cells after 48 hr by SRB assay
[5] = Cytotoxicity against Homo sapiens (human) breast cancer cells after 48 hr by SRB assay; conditions: Cancer cell lines
NCI-H460 [6] = assay: Cytotoxicity against Homo sapiens (human) NCI-H460 cells assessed as cellular growth after 48 hr by Alamar blue assay; set-up: concentration or dose not given beside the values
HOP-92 = assay: Cytotoxicity against Homo sapiens (human) HOP92 cells after 48 hr by SRB assay; conditions: HOP-92, 48 h
HT-29 = assay: Cytotoxicity against Homo sapiens (human) HT-29 cells after 48 hr by SRB assay; conditions: HT-29, 48 h
NCI-H23 = assay: Cytotoxicity against Homo sapiens (human) NCI-H23 cells after 48 hr by SRB assay; conditions: NCI-H23, 48 h
SF-268 [7] = assay: Cytotoxicity against Homo sapiens (human) SF268 cells after 48 hr by SRB assay; conditions: SF-268, 48 h
[8] = Cytotoxicity against Homo sapiens (human) NCI-H322 cells after 48 hr by SRB assay; conditions: NCI-H322, 48 h
LOX IMVI = assay: Cytotoxicity against Homo sapiens (human) LOXIMVI cells after 48 hr by SRB assay
[9] = Cytotoxicity against Homo sapiens (human) NCI-ADR-RES cells after 48 hr by SRB assay
NCI-H460 [10] = assay: Cytotoxicity against Homo sapiens (human) NCI-H460 cells after 48 hr by SRB assay; conditions: NCI-H460, 48 h
ACHN = assay: Cytotoxicity against Homo sapiens (human) ACHN cells after 48 hr by SRB assay
RPMI-8226 = assay: Cytotoxicity against Homo sapiens (human) RPMI8226 cells after 48 hr by SRB assay; conditions: RPMI-8226, 48 h
[11] = Cytotoxicity against Homo sapiens (human) leukemia cells after 48 hr by SRB assay; conditions: Leukemia cell
SNB-75 = assay: Cytotoxicity against Homo sapiens (human) SNB75 cells after 48 hr by SRB assay; conditions: SNB-75, 48 h
Hs-578T = assay: Cytotoxicity against Homo sapiens (human) Hs578T cells after 48 hr by SRB assay
SNB-19 = assay: Cytotoxicity against Homo sapiens (human) SNB19 cells after 48 hr by SRB assay; conditions: SNB-19, 48 h
UACC-62 = assay: Cytotoxicity against Homo sapiens (human) UACC62 cells after 48 hr by SRB assay; conditions: UACC-62, 48 h
[12] = Cytotoxicity against Homo sapiens (human) prostate cancer cells after 48 hr by SRB assay; conditions: Cancer cell lines
SK-OV-3 = assay: Cytotoxicity against Homo sapiens (human) SKOV3 cells after 48 hr by SRB assay; conditions: SK-OV-3, 48 h
SK-MEL-28 = assay: Cytotoxicity against Homo sapiens (human) SK-MEL-28 cells after 48 hr by SRB assay; conditions: SK-MEL-28, 48 h
[13] = Cytotoxicity against Homo sapiens (human) renal cancer cells after 48 hr by SRB assay; conditions: Cancer cell lines
MOLT-4 = assay: Cytotoxicity against Homo sapiens (human) MOLT4 cells after 48 hr by SRB assay; conditions: MOLT-4, 48 h
A549 = assay: Cytotoxicity against Homo sapiens (human) A549 cells after 48 hr by SRB assay; conditions: A549, 48 h
IGROV-1 = assay: Cytotoxicity against Homo sapiens (human) IGROV1 cells after 48 hr by SRB assay; conditions: IGROV-1, 48 h
HCT-15 = assay: Cytotoxicity against Homo sapiens (human) HCT15 cells after 48 hr by SRB assay; conditions: HCT-15, 48 h
[14] = Cytotoxicity against Homo sapiens (human) CNS cancer cells after 48 hr by SRB assay; conditions: Cancer cell lines
DU-145 = assay: Cytotoxicity against Homo sapiens (human) DU145 cells after 48 hr by SRB assay; conditions: DU-145, 48 h
786-0 = assay: Cytotoxicity against Homo sapiens (human) 786-0 cells after 48 hr by SRB assay; conditions: 786-0, 48 h
UO-31 = assay: Cytotoxicity against Homo sapiens (human) UO31 cells after 48 hr by SRB assay; conditions: UO-31, 48 h
CAKI-1 = assay: Cytotoxicity against Homo sapiens (human) Caki1 cells after 48 hr by SRB assay; conditions: CAKI-1, 48 h
SK-MEL-5 = assay: Cytotoxicity against Homo sapiens (human) SK-MEL-5 cells after 48 hr by SRB assay; conditions: SK-MEL-5, 48 h
T47D = assay: Cytotoxicity against Homo sapiens (human) T47D cells after 48 hr by SRB assay
SW-620 = assay: Cytotoxicity against Homo sapiens (human) SW620 cells after 48 hr by SRB assay; conditions: SW-620, 48 h
BT-549 = assay: Cytotoxicity against Homo sapiens (human) BT549 cells after 48 hr by SRB assay; conditions: BT-549, 48 h
U-251 = assay: Cytotoxicity against Homo sapiens (human) U251 cells after 48 hr by SRB assay; conditions: U-251, 48 h
HCC 2998 = assay: Cytotoxicity against Homo sapiens (human) HCC2998 cells after 48 hr by SRB assay; conditions: HCC 2998, 48 h

With `O=C(NC1CCCCC1)NS(=O)(=O)c1ccc(-n2nc3c(c2-c2cccs2)Cc2ccccc2-3)cc1` the Activity (SF-268 [1]) was “<=32%”, the GI50 [2] was 25.3 µM and the TGI [2] was 80.3 µM. It also gave a GI50 (M14) of 64.1 µM, a GI50 [3] of 24.2 µM and a TGI [3] of 73.3 µM. It also gave a GI50 (EKVX) of 28.6 µM, a GI50 (KM12) of 34.9 µM and a GI50 (OVCAR-3) of 24.5 µM. It also gave a GI50 [4] of 38.7 µM, a TGI [4] of 46.7 µM and a GI50 (RXF 393) of 29.2 µM. It also gave a GI50 (NCI-H522) of 12.3 µM, a GI50 (CCRF-CEM) of 1.15 µM and a GI50 [5] of 41.7 µM. The TGI [5] was 94.2 µM, the Activity (NCI-H460 [6]) was “<=32%” and the GI50 (HOP-92) was 14.3 µM. For the same compound, the GI50 (HT-29) was 34.3 µM, the GI50 (NCI-H23) was 12.8 µM and the GI50 (SF-268 [7]) was over 100 µM. For the same compound, the GI50 [8] was 37.9 µM, the GI50 (LOX IMVI) was 5.66 µM and the GI50 [9] was 20.4 µM. It also gave a GI50 (NCI-H460 [10]) of 93 µM, a GI50 (ACHN) of 17.3 µM and a GI50 (RPMI-8226) of 10.7 µM. The GI50 [11] was 17.9 µM, the TGI [11] was 26.6 µM and the GI50 (SNB-75) was 52.2 µM. The GI50 (Hs-578T) was 37.5 µM, the GI50 (SNB-19) was 56.8 µM and the GI50 (UACC-62) was 19.3 µM. It also gave a GI50 [12] of 23.2 µM, a TGI [12] of 34.7 µM and a GI50 (SK-OV-3) of 44.5 µM. It also gave a GI50 (SK-MEL-28) of 34.2 µM, a GI50 [13] of 21.3 µM and a TGI [13] of 40.1 µM. The GI50 (MOLT-4) was 49.9 µM, the GI50 (A549) was 28 µM and the GI50 (IGROV-1) was 4.12 µM. The GI50 (HCT-15) was 17.8 µM, the GI50 [14] was 49.5 µM and the TGI [14] was 93.6 µM. It also gave a GI50 (DU-145) of 31.9 µM, a GI50 (786-0) of 32.3 µM and a GI50 (UO-31) of 15.4 µM. It also gave a GI50 (CAKI-1) of 16 µM, a GI50 (SK-MEL-5) of 18.7 µM and a GI50 (T47D) of 39.7 µM. It also gave a GI50 (SW-620) of 20.7 µM, a GI50 (BT-549) of 33.7 µM and a GI50 (U-251) of 25.6 µM. The GI50 (HCC 2998) was 6.63 µM.

For `O=C(Nc1ccccc1)NS(=O)(=O)c1ccc(-n2nc3c(c2-c2cccs2)Cc2ccccc2-3)cc1`, the Activity (SF-268 [1]) was “<=32%”, the GI50 [2] was 31.2 µM and the TGI [2] was 98.3 µM. For the same compound, the GI50 (M14) was 25 µM, the GI50 [3] was 20.4 µM and the TGI [3] was 37.2 µM. The GI50 (EKVX) was 26.1 µM, the GI50 (KM12) was 8.08 µM and the GI50 (OVCAR-3) was 21.8 µM. It also gave a GI50 [4] of 18.2 µM, a TGI [4] of 74.4 µM and a GI50 (RXF 393) of 85.3 µM. The GI50 (NCI-H522) was 31.5 µM, the GI50 (CCRF-CEM) was 13.6 µM and the GI50 [5] was 20.8 µM. For the same compound, the TGI [5] was 56.5 µM, the Activity (NCI-H460 [6]) was “<=32%” and the GI50 (HOP-92) was 12.3 µM. The GI50 (HT-29) was 26.7 µM, the GI50 (NCI-H23) was 12.2 µM and the GI50 (SF-268 [7]) was 26 µM. For the same compound, the GI50 [8] was 4.5 µM, the GI50 (LOX IMVI) was 12 µM and the GI50 [9] was 16.1 µM. For the same compound, the GI50 (NCI-H460 [10]) was 18.9 µM, the GI50 (ACHN) was 17.6 µM and the GI50 (RPMI-8226) was 5.49 µM. The GI50 [11] was 12.1 µM, the TGI [11] was 85.6 µM and the GI50 (SNB-75) was 70.4 µM. It also gave a GI50 (Hs-578T) of 16.8 µM, a GI50 (SNB-19) of over 100 µM and a GI50 (UACC-62) of 15.8 µM. For the same compound, the GI50 [12] was 19.5 µM, the TGI [12] was 98.1 µM and the GI50 (SK-OV-3) was 60.8 µM. The GI50 (SK-MEL-28) was 50.2 µM, the GI50 [13] was 29.6 µM and the TGI [13] was 42.5 µM. It also gave a GI50 (MOLT-4) of 15.5 µM, a GI50 (A549) of 20.8 µM and a GI50 (IGROV-1) of 21.4 µM. For the same compound, the GI50 (HCT-15) was 16.9 µM, the GI50 [14] was 44.4 µM and the TGI [14] was 80.7 µM. It also gave a GI50 (DU-145) of 28.6 µM, a GI50 (786-0) of 17.6 µM and a GI50 (UO-31) of 32.2 µM. The GI50 (CAKI-1) was 11.1 µM, the GI50 (SK-MEL-5) was 15.6 µM and the GI50 (T47D) was 37.9 µM. For the same compound, the GI50 (SW-620) was 22.9 µM, the GI50 (BT-549) was 24.1 µM and the GI50 (U-251) was 22.9 µM. It also gave a GI50 (HCC 2998) of 15.3 µM.
